# Reference: publication PMC5218480 (PLoS ONE, 2017)
# Tested on: MV-4-11 cells
# Assay: Gene expression microarray analysis (Affymetrix PrimeView) and GSEA
# Type: cell-based, human
# Set-up: RFU PODN (11730768_x_at) / Fold change /veh PODN (11730768_x_at) / RFU LINC00158 (11744669_a_at) / Fold change /veh LINC00158 (11744669_a_at) / RFU DUSP10 (11751237_a_at) / Fold change /veh DUSP10 (11751237_a_at) / RFU ID3 (11757404_x_at) / Fold change /veh ID3 (11757404_x_at) / RFU PLEKHG5 (11737974_s_at) / Fold change /veh PLEKHG5 (11737974_s_at) / RFU LRRC4B (11730491_at) / Fold change /veh LRRC4B (11730491_at) / RFU GIMAP4 (11747438_a_at) / Fold change /veh GIMAP4 (11747438_a_at) / RFU KRT8 (11758183_x_at) / Fold change /veh KRT8 (11758183_x_at) / RFU CNN1 (11734310_a_at) / Fold change /veh CNN1 (11734310_a_at) / RFU VPS37D (11726825_at) / Fold change /veh VPS37D (11726825_at) / RFU C10orf10 (11716522_x_at) / Fold change /veh C10orf10 (11716522_x_at) / RFU KIR2DL2 /// KIR2DL4 /// KIR2DL5A /// KIR2DL5B /// KIR2DS1 /// KIR2DS2 /// KIR2DS3 /// KIR2DS4 /// KIR3DL3 /// KIR3DL3 /// KIR3DS1 (11738374_at) / Fold change /veh KIR2DL2 /// KIR2DL4 /// KIR2DL5A /// KIR2DL5B /// KIR2DS1 /// KIR2DS2 /// KIR2DS3 /// KIR2DS4 /// KIR3DL3 /// KIR3DL3 /// KIR3DS1 (11738374_at) / RFU C1QL1 (11718748_at) / Fold change /veh C1QL1 (11718748_at) / RFU TMPRSS4 (11747572_a_at) / Fold change /veh TMPRSS4 (11747572_a_at) / RFU HAMP (11756126_x_at) / Fold change /veh HAMP (11756126_x_at) / RFU RNFT2 (11725882_a_at) / Fold change /veh RNFT2 (11725882_a_at) / RFU NR4A2 (11747474_a_at) / Fold change /veh NR4A2 (11747474_a_at) / RFU ABCC12 (11746883_a_at) / Fold change /veh ABCC12 (11746883_a_at) / RFU TMEM136 (11760407_x_at) / Fold change /veh TMEM136 (11760407_x_at) / RFU CLDN22 /// WWC2 (11732394_at) / Fold change /veh CLDN22 /// WWC2 (11732394_at) / RFU HLA-DPB1 (11760878_x_at) / Fold change /veh HLA-DPB1 (11760878_x_at) / RFU SPINT1 (11716480_a_at) / Fold change /veh SPINT1 (11716480_a_at) / RFU GAP43 (11754022_s_at) / Fold change /veh GAP43 (11754022_s_at) / RFU A4GNT (11735810_at) / Fold change /veh A4GNT (11735810_at) / RFU PRB3 (11715151_x_at) / Fold change /veh PRB3 (11715151_x_at) / RFU TUBB4B (11761932_at) / Fold change /veh TUBB4B (11761932_at) / RFU CAPN14 (11732068_a_at) / Fold change /veh CAPN14 (11732068_a_at) / RFU TMCC2 (11721928_a_at) / Fold change /veh TMCC2 (11721928_a_at) / RFU IRGQ (11745062_a_at) / Fold change /veh IRGQ (11745062_a_at) / RFU FAM174B (11720279_a_at) / Fold change /veh FAM174B (11720279_a_at) / RFU TMPRSS4 (11748680_a_at) / Fold change /veh TMPRSS4 (11748680_a_at) / RFU FAM212B (11763350_a_at) / Fold change /veh FAM212B (11763350_a_at) / RFU PLEKHG5 (11743358_a_at) / Fold change /veh PLEKHG5 (11743358_a_at) / RFU ZSCAN30 (11745921_a_at) / Fold change /veh ZSCAN30 (11745921_a_at) / RFU CMKLR1 (11741424_a_at) / Fold change /veh CMKLR1 (11741424_a_at) / RFU LOC101060620 /// MAPK8IP1 (11723275_at) / Fold change /veh LOC101060620 /// MAPK8IP1 (11723275_at) / RFU SPTSSB (11747773_x_at) / Fold change /veh SPTSSB (11747773_x_at) / RFU PRSS12 (11739890_at) / Fold change /veh PRSS12 (11739890_at) / RFU BIN1 (11741810_x_at) / Fold change /veh BIN1 (11741810_x_at) / RFU WNT11 (11732464_a_at) / Fold change /veh WNT11 (11732464_a_at) / RFU C10orf10 (11716521_a_at) / Fold change /veh C10orf10 (11716521_a_at) / RFU C5orf56 (11738089_at) / Fold change /veh C5orf56 (11738089_at) / RFU CYB561 (11721691_x_at) / Fold change /veh CYB561 (11721691_x_at) / RFU ANKRD19P (11752326_a_at) / Fold change /veh ANKRD19P (11752326_a_at) / RFU OR2T12 /// OR2T33 /// OR2T8 (11738714_s_at) / Fold change /veh OR2T12 /// OR2T33 /// OR2T8 (11738714_s_at) / RFU VCAN (11748164_a_at) / Fold change /veh VCAN (11748164_a_at) / RFU JSRP1 (11732532_at) / Fold change /veh JSRP1 (11732532_at) / RFU KRTAP10-11 (11738290_x_at) / Fold change /veh KRTAP10-11 (11738290_x_at) / RFU MYO3A (11730013_a_at) / Fold change /veh MYO3A (11730013_a_at) / RFU EBF3 (11725865_a_at) / Fold change /veh EBF3 (11725865_a_at) / RFU CAMK2N1 (11719241_x_at) / Fold change /veh CAMK2N1 (11719241_x_at) / RFU C5orf56 (11738088_a_at) / Fold change /veh C5orf56 (11738088_a_at) / RFU OLFML3 (11715873_a_at) / Fold change /veh OLFML3 (11715873_a_at) / RFU LOC100653217 /// NTM (11731650_a_at) / Fold change /veh LOC100653217 /// NTM (11731650_a_at) / RFU MAPK11 (11762145_a_at) / Fold change /veh MAPK11 (11762145_a_at) / RFU FIZ1 (11724087_x_at) / Fold change /veh FIZ1 (11724087_x_at) / RFU OASL (11726364_x_at) / Fold change /veh OASL (11726364_x_at) / RFU SOX15 (11748057_x_at) / Fold change /veh SOX15 (11748057_x_at) / RFU CD79A (11719716_a_at) / Fold change /veh CD79A (11719716_a_at) / RFU HIST1H1D (11736915_at) / Fold change /veh HIST1H1D (11736915_at) / RFU CASKIN2 (11723855_a_at) / Fold change /veh CASKIN2 (11723855_a_at) / RFU LOC730098 (11760151_x_at) / Fold change /veh LOC730098 (11760151_x_at) / RFU OR4N2 (11742367_at) / Fold change /veh OR4N2 (11742367_at) / RFU PRRT2 (11749266_a_at) / Fold change /veh PRRT2 (11749266_a_at) / RFU SNX32 (11753110_a_at) / Fold change /veh SNX32 (11753110_a_at) / RFU CDHR5 (11726645_a_at) / Fold change /veh CDHR5 (11726645_a_at) / RFU RCAN1 (11760418_a_at) / Fold change /veh RCAN1 (11760418_a_at) / RFU FAM167A (11723789_a_at) / Fold change /veh FAM167A (11723789_a_at) / RFU FAM26E (11764081_at) / Fold change /veh FAM26E (11764081_at) / RFU ISYNA1 (11749810_s_at) / Fold change /veh ISYNA1 (11749810_s_at) / RFU ACY1 (11761880_at) / Fold change /veh ACY1 (11761880_at) / RFU 11764098_at / Fold change /veh 11764098_at / RFU SAMD14 (11745864_x_at) / Fold change /veh SAMD14 (11745864_x_at) / RFU NPB (11741838_a_at) / Fold change /veh NPB (11741838_a_at) / RFU TMPRSS6 (11731388_a_at) / Fold change /veh TMPRSS6 (11731388_a_at) / RFU KRTAP10-2 (11738614_at) / Fold change /veh KRTAP10-2 (11738614_at) / RFU ARHGAP8 /// PRR5-ARHGAP8 (11727945_x_at) / Fold change /veh ARHGAP8 /// PRR5-ARHGAP8 (11727945_x_at) / RFU KRTAP5-7 /// NADSYN1 (11734609_at) / Fold change /veh KRTAP5-7 /// NADSYN1 (11734609_at) / RFU RASL12 (11751679_a_at) / Fold change /veh RASL12 (11751679_a_at) / RFU CDKN2B (11736163_a_at) / Fold change /veh CDKN2B (11736163_a_at) / RFU PRF1 (11729649_at) / Fold change /veh PRF1 (11729649_at) / RFU, ZNF638 /// ZNF638-IT1 / Fold change vs veh, ZNF638 /// ZNF638-IT1 / RFU, PANK3 / Fold change vs veh, PANK3 / RFU, SH3YL1 / Fold change vs veh, SH3YL1 / RFU, ZEB2 / Fold change vs veh, ZEB2 / RFU, NRIP1 / Fold change vs veh, NRIP1 / RFU, PTTG1IP / Fold change vs veh, PTTG1IP / RFU, CAPN2 / Fold change vs veh, CAPN2 / RFU, MED14 / Fold change vs veh, MED14 / RFU, SNORA58 / Fold change vs veh, SNORA58 / RFU, C1orf63 / Fold change vs veh, C1orf63 / RFU, LRRFIP1 / Fold change vs veh, LRRFIP1 / RFU, NDUFAF7 / Fold change vs veh, NDUFAF7 / RFU, SLC12A2 / Fold change vs veh, SLC12A2 / RFU, IBTK / Fold change vs veh, IBTK / RFU, ESF1 / Fold change vs veh, ESF1 / Fold change vs veh, TMEM50B / RFU, TAOK1 / Fold change vs veh, TAOK1 / RFU, ACBD3 / Fold change vs veh, ACBD3 / RFU, TMA16 / Fold change vs veh, TMA16 / RFU, RWDD3 / Fold change vs veh, RWDD3 / RFU, BCAT1 / Fold change vs veh, BCAT1 / RFU, EDEM3 / Fold change vs veh, EDEM3 / RFU, TMEM33 / Fold change vs veh, TMEM33 / RFU, WDR75 / Fold change vs veh, WDR75 / RFU, AHCTF1 / Fold change vs veh, AHCTF1 / RFU, TFRC / Fold change vs veh, TFRC / RFU, ZDHHC17 / Fold change vs veh, ZDHHC17 / RFU, NOM1 / Fold change vs veh, NOM1 / RFU, ARL8B / Fold change vs veh, ARL8B / RFU, ZBTB11 / Fold change vs veh, ZBTB11 / RFU, TAMM41 / Fold change vs veh, TAMM41 / RFU, KIAA1704 /// LOC100996395 / Fold change vs veh, KIAA1704 /// LOC100996395 / RFU, ING1 / Fold change vs veh, ING1 / RFU, TRMT61B / Fold change vs veh, TRMT61B / RFU, FUBP3 / Fold change vs veh, FUBP3 / RFU, TP53 / Fold change vs veh, TP53 / RFU, TNKS2 / Fold change vs veh, TNKS2 / RFU, ZFP14 / Fold change vs veh, ZFP14 / RFU, ACTR2 / Fold change vs veh, ACTR2 / RFU, PPP3R1 / Fold change vs veh, PPP3R1 / RFU, PIK3R1 / Fold change vs veh, PIK3R1 / RFU, HNRNPA1 / Fold change vs veh, HNRNPA1 / RFU, RNF170 / Fold change vs veh, RNF170 / RFU, ZNF28 / Fold change vs veh, ZNF28 / RFU, RNGTT / Fold change vs veh, RNGTT / RFU, OGT / Fold change vs veh, OGT / RFU, BRD1 / Fold change vs veh, BRD1 / RFU, MARS / Fold change vs veh, MARS / RFU, ZNF655 / Fold change vs veh, ZNF655 / RFU, FAHD1 / Fold change vs veh, FAHD1 / RFU, BDP1 / Fold change vs veh, BDP1 / RFU, LRRCC1 / Fold change vs veh, LRRCC1 / RFU, ARID1A / Fold change vs veh, ARID1A / RFU, ZNF146 / Fold change vs veh, ZNF146 / RFU, ZNF330 / Fold change vs veh, ZNF330 / RFU, GPN3 / Fold change vs veh, GPN3 / RFU, C9orf123 / Fold change vs veh, C9orf123 / RFU, N4BP2L2 / Fold change vs veh, N4BP2L2 / RFU, ARFIP1 / Fold change vs veh, ARFIP1 / RFU, FAM179B / Fold change vs veh, FAM179B / RFU, BCL10 / Fold change vs veh, BCL10 / RFU, UHRF1BP1L / Fold change vs veh, UHRF1BP1L / RFU, BET1 / Fold change vs veh, BET1 / RFU, CNOT2 / Fold change vs veh, CNOT2 / RFU, ZNF268 / Fold change vs veh, ZNF268 / Fold change vs veh, ZNF507 / RFU, DGCR2 / Fold change vs veh, DGCR2 / RFU, WDSUB1 / Fold change vs veh, WDSUB1 / Fold change vs veh, HSP90B1 /// MIR3652 / RFU, ADSS / Fold change vs veh, ADSS / RFU, GK / Fold change vs veh, GK / RFU, ZNF148 / Fold change vs veh, ZNF148 / RFU, TAF9 / Fold change vs veh, TAF9 / RFU, SLC1A5 / Fold change vs veh, SLC1A5 / RFU, SLMO2 / Fold change vs veh, SLMO2 / RFU, ABCC4 / Fold change vs veh, ABCC4 / RFU, LOC101060439 /// RAP1B / Fold change vs veh, LOC101060439 /// RAP1B / RFU, RFX7 / Fold change vs veh, RFX7 / RFU, GTPBP10 / Fold change vs veh, GTPBP10 / RFU, CNEP1R1 / Fold change vs veh, CNEP1R1 / RFU, BIVM-ERCC5 /// ERCC5 / Fold change vs veh, BIVM-ERCC5 /// ERCC5 / RFU, ILF3 / Fold change vs veh, ILF3 / RFU 11762660_at / Fold change /veh 11762660_at / RFU VCAN (11757783_s_at) / Fold change /veh VCAN (11757783_s_at) / RFU DDX43 (11728927_at) / Fold change /veh DDX43 (11728927_at) / RFU KRT8 (11758188_x_at) / Fold change /veh KRT8 (11758188_x_at) / RFU NKD1 (11759106_at) / Fold change /veh NKD1 (11759106_at) / RFU SRD5A1 (11742802_a_at) / Fold change /veh SRD5A1 (11742802_a_at) / RFU TPSAB1 /// TPSB2 (11721975_s_at) / Fold change /veh TPSAB1 /// TPSB2 (11721975_s_at) / RFU GSTM3 (11746129_a_at) / Fold change /veh GSTM3 (11746129_a_at) / RFU IL23R (11737362_x_at) / Fold change /veh IL23R (11737362_x_at) / RFU TMEM51 (11727254_a_at) / Fold change /veh TMEM51 (11727254_a_at) / RFU PIWIL2 (11732686_x_at) / Fold change /veh PIWIL2 (11732686_x_at) / RFU ORM1 (11744905_x_at) / Fold change /veh ORM1 (11744905_x_at) / RFU CCDC152 (11743942_at) / Fold change /veh CCDC152 (11743942_at) / RFU ECM1 (11717891_a_at) / Fold change /veh ECM1 (11717891_a_at) / RFU IL23R (11748794_a_at) / Fold change /veh IL23R (11748794_a_at) / RFU TNFAIP8L3 (11732012_x_at) / Fold change /veh TNFAIP8L3 (11732012_x_at) / RFU MBOAT4 (11741988_at) / Fold change /veh MBOAT4 (11741988_at) / RFU 11764193_at / Fold change /veh 11764193_at / RFU TMEM53 (11763286_at) / Fold change /veh TMEM53 (11763286_at) / RFU MAGEB2 (11727129_at) / Fold change /veh MAGEB2 (11727129_at) / RFU TMEM200A (11744735_a_at) / Fold change /veh TMEM200A (11744735_a_at) / RFU CCDC152 (11751479_a_at) / Fold change /veh CCDC152 (11751479_a_at) / RFU FAM211A (11726209_a_at) / Fold change /veh FAM211A (11726209_a_at) / RFU RGS16 (11746705_a_at) / Fold change /veh RGS16 (11746705_a_at) / RFU VCAN (11755009_s_at) / Fold change /veh VCAN (11755009_s_at) / RFU RHOB (11743442_s_at) / Fold change /veh RHOB (11743442_s_at) / RFU RGS16 (11720943_a_at) / Fold change /veh RGS16 (11720943_a_at) / RFU RGS16 (11720944_at) / Fold change /veh RGS16 (11720944_at) / RFU, VPS4B / Fold change vs veh, VPS4B / RFU, CREB1 / Fold change vs veh, CREB1 / RFU, DNAJC13 / Fold change vs veh, DNAJC13 / RFU, GNAQ / Fold change vs veh, GNAQ / RFU, CDK5R1 / Fold change vs veh, CDK5R1 / RFU, ZRANB3 / Fold change vs veh, ZRANB3 / RFU, CUL4A / Fold change vs veh, CUL4A / RFU, CCNY / Fold change vs veh, CCNY / RFU, UFL1 / Fold change vs veh, UFL1 / RFU, COG3 / Fold change vs veh, COG3 / RFU, DIAPH2 / Fold change vs veh, DIAPH2 / RFU, SKA2 / Fold change vs veh, SKA2 / RFU, AFF3 / Fold change vs veh, AFF3 / RFU, LMF1 / Fold change vs veh, LMF1 / RFU, IPO11 / Fold change vs veh, IPO11 / RFU, DFFB / Fold change vs veh, DFFB / RFU, FOXP1 / Fold change vs veh, FOXP1 / RFU, CARD8 / Fold change vs veh, CARD8 / RFU, STRN3 / Fold change vs veh, STRN3 / RFU, ADK / Fold change vs veh, ADK / RFU, RASSF2 / Fold change vs veh, RASSF2 / RFU, WIPF1 / Fold change vs veh, WIPF1 / RFU, LARP1B / Fold change vs veh, LARP1B / RFU, RASA1 / Fold change vs veh, RASA1 / RFU, RB1 / Fold change vs veh, RB1 / RFU, PPFIA1 / Fold change vs veh, PPFIA1 / RFU, MAT2A / Fold change vs veh, MAT2A / RFU, CCT5 / Fold change vs veh, CCT5 / RFU, WDR92 / Fold change vs veh, WDR92 / RFU, CUX1 / Fold change vs veh, CUX1 / RFU, TTC7A / Fold change vs veh, TTC7A / RFU, TMEM135 / Fold change vs veh, TMEM135 / RFU, DEPTOR / Fold change vs veh, DEPTOR / RFU, CPM / Fold change vs veh, CPM / RFU, DNAJB6 / Fold change vs veh, DNAJB6 / RFU, CACNA2D3 / Fold change vs veh, CACNA2D3 / RFU, DTX4 / Fold change vs veh, DTX4 / RFU, TFCP2 / Fold change vs veh, TFCP2 / RFU, GMCL1 /// GMCL1P1 / Fold change vs veh, GMCL1 /// GMCL1P1 / RFU, AEBP2 / Fold change vs veh, AEBP2 / RFU, SNHG1 /// SNORD22 /// SNORD25 /// SNORD26 /// SNORD27 /// SNORD28 /// SNORD29 /// SNORD31 / Fold change vs veh, SNHG1 /// SNORD22 /// SNORD25 /// SNORD26 /// SNORD27 /// SNORD28 /// SNORD29 /// SNORD31 / Fold change (Aza/veh), C12orf56 (ProbeSet 11735607_a_at) / Fold change (ACY-1035/veh), C12orf56 (ProbeSet 11735607_a_at) / Fold change (Aza/veh), FGFR1OP (ProbeSet 11751329_s_at) / Fold change (ACY-1035/veh), FGFR1OP (ProbeSet 11751329_s_at) / Fold change (Aza/veh), VPS36 (ProbeSet 11739960_a_at) / Fold change (ACY-1035/veh), VPS36 (ProbeSet 11739960_a_at) / RFU SYPL1 (11715823_x_at) / Fold change /veh SYPL1 (11715823_x_at) / RFU IGFBP7 (11715501_s_at) / Fold change /veh IGFBP7 (11715501_s_at) / RFU REEP3 (11722064_at) / Fold change /veh REEP3 (11722064_at) / RFU IGLL1 (11728026_x_at) / Fold change /veh IGLL1 (11728026_x_at): dose or concentration left out as unconfirmed
# Details: ProbeSet 11755425_a_at; LIST B
smiles,measurement,value
Nc1ncn([C@@H]2O[C@H](CO)[C@@H](O)[C@H]2O)c(=O)n1 [azacitidine],"Fold change vs veh, FAM179B",0.87
